Measured values published in US20210154156A1, “APPLICATION OF COMPOUND IN INHIBITING AB ACCUMULATION AND TREATING ALZHEIMER'S DISEASE” (NORTHEAST NORMAL UNIVERSITY, priority 2018, published 2021).
Counter-ions that a name gives are not always drawn.

Tests used:
Aβ protein monomer = biological target: T1, Aβ protein monomer (Homo sapiens, UniProt P05067); assay: Circular dichroism spectrum experiment (CD) of Aβ β-sheet formation; type: biochemical; details: Aβ 20 uM; drug 10, 20, 40 uM; 12 hours 37° C.
T1 construct: purchased Nanjing Elutrian Biological Co. Ltd
Experimental: The A beta monomer was mixed with a drug, the final concentration of Aβ was 20 uM, the final concentrations of the drug were 0 uM, 10 uM, 20 uM and 40 uM respectively, and after 12 hours incubation at 37° C., a J-810 spectrometer (Jayasco, Japan) was used for detection. The wavelength range was 190-250 nm, the resolution was 0.5 nm, the spectrum width was 2 nm, the scanning speed was 100 nm/min, the response time was 1 s, and the measuring temperature was normal temperature. The solution was added to a quartz cuvette with an optical path of 0.1 mm for measurement, and each experiment was repeated three times. Subtracting the buffer curve from each scan curve as the experimental result, each experiment was repeated three times, and the average value was given.

[1] = system: APP/PS1 double transgenic mice; assay: Morris water maze in APP/PS1 transgenic mice; type: in vivo; details: intragastric administration for 2 months
Description: (§1) The wild-type (WT) and APP/PS1 double transgenic mice used in the experiment of the present invention were purchased from the Model Animal Research Institute of Nanjing University, and the mouse genes were identified in strict accordance with the PCR method provided.
In the Morris water maze experiment, the mouse water maze training was two days (data not recorded). The mice were placed into the pool from 4 entry points (quadrants) facing the pool wall. The platform was hidden 1 cm underwater, and the water temperature was kept at 23° C. , and the training lasted for 2 minutes. […] The experiment phase started from the third day, and the experiment was continued for 6 days. Each mouse was tested once a day. During the experiment, the mice were respectively placed into the pool from 4 entry points (quadrants) facing the pool wall.
The time was recorded from the mice entering the water to the mice finding and staying in the underwater hidden platform. That was called as the incubation period. On the eighth day, the platform was removed, and each mouse was launched from the farthest position of the original platform and swam freely for 2 minutes. The swimming time of the animal in the target quadrant (the area where the platform located), the number of times of traversing the platform, the path and other main parameters were tracked and recorded by the miniature camera and analyzed.

[2] = system: human neuroma blasts SH-SY5Y; assay: MTT test of Aβ42 oligomer-mediated neurotoxicity in SH-SY5Y; type: cell-based
Experimental: The cells used in the Aβ42 oligomer-mediated neurotoxicity damage experiment were human neuroma blasts SH-SY5Y, incubated in DME medium of 10% FBS at 37° C. The control group without Aβ protein and the experimental group with added drug were cultured overnight at 37° C. with slow shaking, and transferred to a 96-well cell culture plate containing SH-SY5Y. The final concentration of Aβ protein was 1 uM and the final concentration of drug was 0.25 uM. 0.5 uM, 1 uM and 2 uM, three parallel holes for each concentration, action time 3 hours, MTT method 490 nm wavelength tested 5 times to analyze cell proliferation.

[3] = system: APP/PS1 double transgenic mice; assay: Y maze in APP/PS1 transgenic mice; type: in vivo; details: after two months of treatment
Description: as §1
In the Y maze experiment, three black striped long arms were marked A, B, and C with the same appearance were combined in a Y shape. The mouse was put in the A arm, and recorded as an error if it turned back from the other long arm during free movement, such as ABA, BCB, etc., recalculated with this arm as the starting point, such as ABACBABCBA. The experiment time for each mouse lasted 8 minutes. When the experiment was completed, the Y labyrinth was cleaned and disinfected with alcohol, and the experiment was performed on the next mouse after drying.

Aβ42 monomers = biological target: T2, Aβ42 monomers (Homo sapiens, UniProt P05067); assay: Thioflavin T test (ThT) of Aβ42 monomer aggregation; type: biochemical; details: Aβ 20 uM; drug 10, 20, 40 uM; 37° C. 24 hours; concentration-dependent
T2 construct: purchased Nanjing Elutrian Biological Co. Ltd
Experimental: The protein A beta protein was provided by Nanjing Elutrian Biological Co. Ltd. and the purity was greater than 95%. The compound macroflavin was provided by Shanghai Yuan-Ye biological company. The Aβ monomer powder was stored at −80° C., standing for 30 minutes at room temperature for the first time, then diluted with hexafluoroisopropanol (HFIP) to 1.0 mg/mL. It stood for at least 2 hours, carrying out ultrasonic 30 minutes to destroy the existing multi-polymer structure, standing and drying at low temperature, was immediately stored at −20° C. Thioflavin T was purchased from Sigma (cargo number T3516-5 G). 0.032 g of THT powder was weighed and dissolved in 20 mL of 20 mM Tris-HCl (pH 7.4) solution to obtain a 5 mM THT mother liquor, and was diluted to 5 uM when used.

Aβ42 monomer = biological target: T3, Aβ42 monomer (Homo sapiens, UniProt P05067); assay: Transmission electron microscopy (TEM) of Aβ42 fiber formation; type: biochemical; details: 37° C. 24 hours; concentration-dependent
T3 construct: purchased Nanjing Elutrian Biological Co. Ltd
Experimental: The preparation was the same as that of Example 1. Then, the Aβ protein sample was incubated at 37° C. for 24 hours, dropped on the surface of a 300 mesh carbon film copper mesh, dried in air, dyed with 2% (w/v) phosphotungstate sodium salt negative for 30 seconds, standing at room temperature for about 4 hours, then the JEM-100CXII transmission electron microscope system (JEOL Inc., Tokyo, Japan) was used to detect and take pictures with an acceleration voltage of 80 kV.

formed Aβ fibers = biological target: T4, formed Aβ fibers (Homo sapiens, UniProt P05067); assay: Depolymerization of the formed Aβ fibrous structure (ThT and TEM); type: biochemical
T4 construct: purchased Nanjing Elutrian Biological Co. Ltd
Experimental: The preparation was the same as that shown in Examples 1 and 2, except that the Aβ42 protein was first incubated at 37° C. for 48 hours, then the drug effect was added, the sample was taken at −20 ° C. every 6 hours, after 48 hours, using all of the samples for ThaT and TEAM tests.

APP/PS1 transgenic mice = assay: Thioflavin S and Congo red staining of brain Aβ plaques in APP/PS1 transgenic mice; type: in vivo
Description: as §1
10-month-old AD mice were anesthetized with 0.4% pentobarbital sodium. Blood was taken by perfusing the atria. 4% paraformaldehyde was perfused for whole body fixation. The brain tissue was taken and weighed. The hemibrains were put into 4% paraformaldehyde solution and used for histopathology. The other half was stored in a cryotube at −80° C. for biochemical analysis. The brain tissues fixed with 4% paraformaldehyde were embedded in wax and sliced. The plaques in the cerebral cortex and hippocampus were stained with Thioflavin S and Congo Red. Pathological images were obtained by digital microscope and fluorescence microscope and quantitatively analyzed.

T1 sequence (P05067 672-713 limits assumed): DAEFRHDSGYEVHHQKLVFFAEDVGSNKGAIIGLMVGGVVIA
T4 sequence (P05067 672-713 limits assumed): as above
T2 sequence (P05067 672-713 limits assumed): as above
T3 sequence (P05067 672-713 limits assumed): as above

| ThT fluorescence intensity (Aβ42 monomer aggregation) vs control group without medicine (Aβ42 monomers) | Aβ protein fiber density, length and width (TEM) (Aβ42 monomer) | ThT fluorescence intensity of pre-formed Aβ fibers vs non-dosing control (formed Aβ fibers; Aβ42 pre-incubated 37° C. 48 hours, then drug, sampled every 6 hours to 48 hours) | Depolymerization of formed Aβ fibers (TEM) (formed Aβ fibers; after 48 hours of treatment) | SMILES | Formation of the β-sheet structure of Aβ monomer (CD) (Aβ protein monomer) | Effect on improving symptoms of AD mice (Morris water maze) [1] | MTT absorbance value (protection from Aβ42 oligomer-mediated neurocytotoxicity) vs control group without drug ([2]; Aβ 1 uM, drug 0.25, 0.5, 1, 2 uM, 3 hours, 490 nm) | MTT effect compared with positive control curcumin ([2]; when the concentration was low) | Y maze effect compared with Arishen treatment group [3] | Correct rate in Y maze of AD mice ([3]; saline AD about 58%, WT about 82%) | Plaque effect compared with positive control nourishing blood serum brain drug group (APP/PS1 transgenic mice; 10-month-old AD mice) | Number of stained Aβ deposition plaques in cortex or hippocampus (Thioflavin S, Congo red) vs normal saline AD mice (APP/PS1 transgenic mice; 10-month-old AD mice after 2 months intragastric administration) | Incubation period for AD mice to find the platform (Morris water maze) ([1]; 8-month-old APP/PS1 mice) | Number of times AD mice crossed the virtual platform (Morris water maze) ([1]; platform removed) |
| --- | --- | --- | --- | --- | --- | --- | --- | --- | --- | --- | --- | --- | --- | --- |
| – | – | – | – | COc1cc2c(cc1OC)C(=O)C(CC1CCN(Cc3ccccc3)CC1)C2 (stereo not drawn) [Arishen, donepezil hydrochloride, reference compound] | had no effect | limited effect | – | – | – | – | – | – | – | – |
| significantly decreased | decreased significantly | remained basically unchanged | could not depolymerize | Cc1cc(O)c2c(c1)C(=O)c1cc(O)cc(O)c1C2=O [emodin, 1,3,8-trihydroxy-6-methylanthracene-9, 10-dione] | significantly reduce | – | increased significantly | stronger than that of the positive control curcumin | better than the Arishen treatment group | increased significantly | slightly better | statistically significant reduction | significantly reduced | significantly improved |
